Measurements taken from PubChem BioAssay (NCI).
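In this assay, cells in 96-well plates receive the compound at five concentrations for 48 hours. Endpoints are linearly interpolated between the surrounding concentrations. TGI marks complete inhibition of growth.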

Key:
Assay in all cases: NCI anticancer screen, dose series, 48 h
CCRF-CEM leukemia = tested on: CCRF-CEM leukemia
COLO 205 colon = tested on: COLO 205 colon
HOP-62 NSCLC = tested on: HOP-62 NSCLC
MDA-MB-231 breast = tested on: MDA-MB-231 breast
MDA-MB-435 = tested on: MDA-MB-435
MDA-N = tested on: MDA-N
MOLT-4 leukemia = tested on: MOLT-4 leukemia
NCI-H522 lung = tested on: NCI-H522 lung
RXF 393 renal = tested on: RXF 393 renal
SF-268 CNS = tested on: SF-268 CNS
SF-539 CNS = tested on: SF-539 CNS
SK-MEL-2 melanoma = tested on: SK-MEL-2 melanoma
SNB-19 CNS = tested on: SNB-19 CNS
SW-620 colon = tested on: SW-620 colon
T-47D breast = tested on: T-47D breast
TK-10 renal = tested on: TK-10 renal
UACC-62 melanoma = tested on: UACC-62 melanoma

Row | Compound | TGI (CCRF-CEM leukemia) | TGI (COLO 205 colon) | TGI (HOP-62 NSCLC) | TGI (MDA-MB-231 breast) | TGI (MDA-MB-435) | TGI (MDA-N) | TGI (MOLT-4 leukemia) | TGI (NCI-H522 lung) | TGI (RXF 393 renal) | TGI (SF-268 CNS) | TGI (SF-539 CNS) | TGI (SK-MEL-2 melanoma) | TGI (SNB-19 CNS) | TGI (SW-620 colon) | TGI (T-47D breast) | TGI (TK-10 renal) | TGI (UACC-62 melanoma)
1 | O=c1nc2n3c4c(cccc4nc-2c(=O)[nH]1)CCC3 | > 100 µM | > 100 µM | > 100 µM | > 100 µM | > 100 µM | > 100 µM | > 100 µM | 71.4 µM | > 100 µM | > 100 µM | > 100 µM | > 100 µM | > 100 µM | > 100 µM | > 100 µM | > 100 µM | > 100 µM
2 | CC1=NN(c2cccc(Cl)c2)C2(SCC(=O)N2c2nc3ccccc3s2)C1=CC=Cc1ccccc1 (centres undefined) | > 100 µM |  | > 100 µM | 72 µM | > 100 µM | > 100 µM | 87.5 µM | 62.3 µM | 64.1 µM | 93.5 µM | > 100 µM | 59.8 µM |  | > 100 µM | > 100 µM | > 100 µM | 
3 | COc1ccc(N=c2oc3ccccc3cc2C(N)=O)cc1 | > 100 µM | > 100 µM | 34.8 µM | > 100 µM | > 100 µM | > 100 µM | > 100 µM | 93.1 µM | > 100 µM | 42.6 µM | 63.6 µM | > 100 µM | 24.7 µM | > 100 µM | > 100 µM | 46.6 µM | > 100 µM
4 | COC(=O)CCC(=O)c1ccc2c(c1)CCC2 | > 100 µM |  | > 100 µM | > 100 µM | > 100 µM | > 100 µM | > 100 µM | > 100 µM | > 100 µM | > 100 µM | > 100 µM | > 100 µM | > 100 µM | > 100 µM | > 100 µM | > 100 µM | 
5 | CCOC1CN=C(Nc2cccc3ccccc23)S1 (centres undefined) | > 10 µM | > 10 µM | > 10 µM | > 10 µM | > 10 µM | > 10 µM | > 10 µM | > 10 µM | > 10 µM | > 10 µM | > 10 µM | > 10 µM | > 10 µM | > 10 µM | > 10 µM | > 10 µM | > 10 µM
6 | NC1N=C(c2ccc(Cl)cc2)C2=C(N1)c1ccccc1CC2 (centres undefined) | > 100 µM | > 100 µM | > 82.7 µM | > 100 µM | > 22.6 µM | > 100 µM | > 31.4 µM | 36.2 µM | 50.1 µM | > 100 µM | > 100 µM | 46.6 µM | > 100 µM | > 78.4 µM | > 100 µM | > 100 µM | > 100 µM
7 | O=c1ccc2ccc(OP(=O)(O)O)cc2o1 | > 100 µM | > 100 µM | > 100 µM | > 100 µM | > 100 µM | > 100 µM | > 100 µM | > 100 µM | > 100 µM | > 100 µM | > 100 µM | > 100 µM | > 100 µM | > 100 µM | > 100 µM | > 100 µM | > 100 µM
8 | Cc1cc(NC2=CC(=O)C(=O)c3ccccc32)no1 | 40.9 µM | 31.6 µM | 32.5 µM | > 67.2 µM | 3.34 µM | 3.34 µM | 31.7 µM | 34.5 µM | 29.6 µM | 31.2 µM | 13.4 µM | 10.4 µM | 31.9 µM | 14.6 µM | 32.7 µM | 63.4 µM | 9.27 µM
9 | N#C/C(=C\c1ccc(F)cc1)c1nc(-c2cc3ccccc3oc2=O)cs1 | > 100 µM | > 100 µM | 25.7 µM | 33.7 µM | > 100 µM | > 100 µM | > 100 µM | 74.4 µM | 64.2 µM | 46.2 µM | 65.9 µM | > 100 µM | 41.1 µM | > 100 µM | > 100 µM | 38.3 µM | 38.7 µM
10 | CC(=O)NC1C(OC(C)C(=O)NC(C)C(=O)NC(CCC(=O)NCCCCCNc2ccc([N+](=O)[O-])c3[nH]c4ccccc4c(=O)c23)C(N)=O)C(O)C(CO)OC1(C)OCc1ccccc1 (centres undefined) | > 100 µM | > 100 µM | > 100 µM | > 100 µM | > 100 µM | > 100 µM | > 100 µM | > 100 µM | > 100 µM | > 100 µM | > 100 µM | > 100 µM | > 100 µM | > 100 µM | > 100 µM | 82.1 µM | > 100 µM
11 | O=C1NC2c3c(I)sc(I)c3C(=O)C2O1 (centres undefined) | 11 µM |  | 28.1 µM | 7.86 µM | 17.5 µM | 9.16 µM | > 38.5 µM | 3.16 µM | 12.7 µM | 21.5 µM | 4.92 µM | 15.3 µM | 17.8 µM | 9.76 µM | > 45.7 µM | 27.3 µM | 23.3 µM
12 | COc1cccc(/C=N/n2c(Cc3ccccc3)n[nH]c2=O)c1 | > 100 µM | > 100 µM | > 100 µM | > 100 µM | > 100 µM | > 100 µM | > 100 µM | > 100 µM | > 100 µM | > 100 µM | > 100 µM | > 100 µM | > 100 µM | > 100 µM | > 100 µM | > 100 µM | > 100 µM
13 | O=C1C2C(C(=O)N1c1ccccc1)C1(c3ccccc3)CCC2(C(=O)c2ccccc2)O1 (centres undefined) | > 10 µM | > 10 µM | > 10 µM | > 10 µM | > 10 µM | > 10 µM | > 10 µM | > 10 µM | > 10 µM | > 10 µM | > 10 µM | > 10 µM | > 10 µM | > 10 µM | > 10 µM | > 10 µM | > 10 µM
14 | COc1ccc(C(CC2(c3ccc(OC)cc3)SCCCS2)NC(C)=O)cc1 (centres undefined) | > 100 µM | 56.7 µM | > 100 µM | > 100 µM | > 100 µM | > 100 µM | 84.3 µM | > 100 µM | > 100 µM | > 100 µM | > 100 µM | > 100 µM | > 100 µM | > 100 µM | 66.5 µM | > 100 µM | > 100 µM
15 | CCN1CCC(O)(c2ccc(Oc3ccc(Cl)cc3)cc2)C(C(=O)c2ccc(Oc3ccc(Cl)cc3)cc2)C1 (centres undefined) | 20.9 µM | 27.4 µM | 21.3 µM | 29.4 µM | 38.8 µM | 27 µM | 43.9 µM | 12 µM | 46.8 µM | 44.3 µM | 30.3 µM | 36.9 µM | 29.3 µM | 50.9 µM | 36.6 µM | 23 µM | 24.8 µM
16 | COc1cc(OC)cc(OCc2nc3cc(C(F)(F)F)ccc3nc2-c2ccccc2)c1 | > 100 µM | > 100 µM | > 100 µM | > 100 µM | > 100 µM | > 100 µM | > 100 µM | > 100 µM | > 100 µM | > 100 µM | > 100 µM | > 100 µM | > 100 µM | > 100 µM | > 100 µM | > 100 µM | > 100 µM
17 | COc1ccc2c(c1)Cc1c(NCCN(C)C)ccc(C(=O)NCCCN(C)CCCNC(=O)c3ccc(NCCN(C)C)c4c3Nc3ccc(OC)cc3C4)c1N2 | 5.49 µM | 0.207 µM | 1.02 µM | 0.419 µM | 0.191 µM | 0.224 µM | 2.62 µM | 0.0514 µM | 1.85 µM | 0.327 µM | 2.24 µM | 0.226 µM | 1.13 µM | 8.65 µM | 12.5 µM | 4.88 µM | 0.365 µM
18 | CCOC(=O)c1cc(C2CCN(c3ccccc3)C2=O)c(/C(O)=C/C(C)=O)[nH]1 (centres undefined) | > 100 µM | > 100 µM | > 100 µM | > 100 µM | > 100 µM | > 100 µM | > 100 µM | > 100 µM | 55.6 µM | > 100 µM | 31.9 µM | > 100 µM | > 100 µM | > 100 µM | > 100 µM | > 100 µM | > 100 µM
19 | Cc1[nH]c(=O)nc2nc3cc(Cl)cc(Cl)c3c(NC(C)(CO)CO)c12 | > 100 µM | > 100 µM | 83.7 µM | 36.9 µM | > 100 µM | > 100 µM | > 100 µM | > 100 µM | > 100 µM | > 100 µM | > 100 µM | > 100 µM | > 100 µM | > 100 µM | > 100 µM | 84.1 µM | > 100 µM
20 | CC[C@]12C=CCN3CC[C@@]4(c5cc(N=O)c(OC)cc5N(C)[C@H]4[C@@](O)(C(=O)OC)[C@@H]1OC(C)=O)[C@@H]32 | 74.1 µM | > 100 µM | > 100 µM | > 100 µM | 74.8 µM | 48.5 µM | > 100 µM | 36.5 µM | > 100 µM | > 100 µM | 66.5 µM | 41.7 µM | > 100 µM | > 100 µM | > 100 µM | > 100 µM | > 100 µM
